Experimental data published in US6054437A, “Method for inducing death of neoplastic cells using piperazine derivatives” (Hitachi Chemical Research Center, Inc., priority 1997, dated 2000).
“Also recorded” adds a separate entry of the source. Structures can show the parent of a compound that is named as a salt.

Key:
HS-578T (breast) = assay: Cancer cell survival assay, HS-578T; format: cell-based, human; conditions: seven days, alone
Description: (§1) Cell survival was assayed in cultured tumor cells. From 500-1000 cells per well were plated in 24-welled culture dishes and exposed to drug for seven days. After drug exposure, a computerized cell imaging technique was utilized to ascertain the number of viable cells remaining in each culture. From the data, survival curves were plotted and a ED50 (drug concentration that permits 50% cell survival) were calculated.
(§2) The cancer cell survival assay is an important additional in vitro assay to assess the anti-neoplastic activity of compounds as the cells are given a prolonged exposure (seven days) to the drug. FIGS. 9-16 show the effect of increasing the dose of NCO-700 on the survival of a number of cancer cell lines. […] In the figures, the vertical axis is the object area, which is the number of surviving cancer cells calculated by a computer.

human tumor cells = assay: Human tumor biopsy assay, tumors in general; format: cell-based; conditions: 20 μM NCO-700 plus vinblastine or adriamycin
Description: 4. Human Tumor Biopsy Assays
where the effect of NCO-700 to enhance killing, by either vinblastine or adriamycin, of cancer cells cultured directly from patient's tumors (Von Hoff et al., Cancer Res. 43:1926-1931, 1983).
For the tumor biopsy assay, primary cell cultures were propagated directly from tumor specimens removed from patients. The cells were grown in suspension culture, treated with adriamycin or vinblastine plus NCO-700, and plated onto soft agar and incubated for two weeks before cell survival was determined.
In a final series of experiments, the effect of NCO-700 on survival of cells cultured directly from biopsied patient tumors was performed. This technique, referred to as a human tumor cloning system, was developed by Von Hoff and associates (Von Hoff et al., Cancer Res. 43:1926-1931, 1983) and was used clinically to predict the course of chemotherapy for these patients. In this method, tumor biopsies were separated into cell suspensions and treated for 1 hour with either 0.4 mg/ml vinblastine (VLB) or 0.5 mg/ml adriamycin (ADR) plus or minus 20 μM NCO-700. The cell suspensions were washed after one hour of incubation and plated with soft agar. After 14 days of incubation at 37°, the percent of colonies surviving was scored. […] In particular, the survival of tumor cells decreased to approximately 1/2 to 1/3 after exposure to NCO-700 and adriamycin. […]

breast cancer cell lines = assay: Cancer cell death assay (LDH release), breast lines; format: cell-based, human; conditions: compound alone, 24 hours
Description: (§3) 1. Cancer Cell Death Assay
(§4) Cell death was measured quantitatively by the release of a marker intracellular enzyme, lactate dehydrogenase (LDH), from damaged or killed cells. LDH released into the extracellular fluid, was measured 24 hours after drug exposure to cancer cells and the enzyme activity was determined by the method of Decker et al. (J. Immunolog Methods 15:61-99, 1988).
(§5) All cell lines used in the present study were obtained from the American Type Tissue Culture Laboratory and cultured according to their specifications. All were human cancer lines unless otherwise noted. The following cell lines and their tissue of origin used in our studies were:
(§6) The first assays performed measured the anti-neoplastic activity of NCO-700, alone, in cell death assays of a wide variety of human cancer cells. The results of these experiments are shown in FIGS. 1-6, where a dose-response curve of NCO-700 versus % LDH release is plotted, with higher values of LDH released indicating greater anti-neoplastic activity (apoptosis).
(§7) In FIG. 8, a dose-response curve is shown of the effect of TOP-008 on the killing of breast, prostate and colon cell lines.

[1] = system: prostate cancer cell lines; assay: Cancer cell death assay (LDH release), prostate lines; format: cell-based, human; conditions: compound alone, 24 hours
Description: as §3, §4, §5, §6, §7

[2] = system: melanoma cell lines B16F10 and SK-Mel-2; assay: Cancer cell death assay (LDH release), melanoma lines; format: cell-based, mouse (B16F10); human (SK-Mel-2); conditions: compound alone, 24 hours
Description: FIG. 2 is a graph showing the relationship between LDH released and the concentration of NCO-700 in cancer cell death assays of melanoma cell lines B16F10 (mouse line) and SK-Mel-2 (human line).
as §3, §4, §5, §6

[3] = system: human prostate cancer cells; assay: Subrenal capsule (SRC) tumor implant assay, prostate cancer; format: in vivo, human tumor in BDF/1 mice
Description: FIG. 17 is a graph showing the relationship between the mean change in size of tumor (delta mean) and the dosage of NCO-700 in a sub-renal capsule assay of human prostate cancer in BDF/1 mice.
3. In Vivo Model/Subrenal Capsule (SRC) Tumor Implant Assay
A tumor implant model, where human tumors were implanted into the renal capsule of mice was performed. The tumors successfully escaped the immune system of the mouse and grew over a six-day period. The advantage of this assay is that the effect of chemotherapeutic agents can be tested in vivo. This model was developed at the University of California, Irvine by Stratton et al. (Gynecologic Oncology 17:185-188, 1984). Human tumors were implanted on day one and were exposed to drug on days two-six. The size of the implant was determined at time zero and at the end of five days of drug treatment, and the difference in size of the implanted tumor at day six, when compared to control animals not exposed to drug, is referred to herein as the delta mean.
Human cancer cells can be grown in the sub-renal capsule of mice, where for a limited period of time they escaped the detection of the mouse's immune system. This assay provides a convenient system to study the effect of drugs on the growth of tumor cells in vivo. As this is a much more time-consuming assay, and requires more drug than the in vitro assays, the effect of NCO-700 was tested on a single prostate cancer cell line. Three groups of animals (n=23 total) were tested with three concentrations of NCO-700 including, 10 mg/kg, 20 mg/kg and 40 mg/kg.

colon cancer cell lines = assay: Cancer cell death assay (LDH release), colon lines; format: cell-based, human; conditions: compound alone, 24 hours
Description: as §3, §4, §5, §6, §7

DU-145 (prostate) = assay: Cancer cell survival assay, DU-145; format: cell-based, human; conditions: DU-145, seven days, alone
Description: as §1, §2

Compound: CCOC(=O)[C@@H]1O[C@H]1C(=O)N[C@@H](CC(C)C)C(=O)N1CCN(Cc2ccc(OC)c(OC)c2OC)CC1 [NCO-700, Bis[ethyl (2R,3R)-3-[(S)-3-methyl-1-[4-(2,3,4-trimethoxyphenylmethyl)piperazin-1-ylcarbonyl]butylcarbamoyl]oxirane-2-carboxylate] Sulfate]
- anti-neoplastic activity (cell survival) (HS-578T (breast)): significant anti-neoplastic activity
- activity in inhibiting survival / sensitizing human tumor cells (human tumor cells): significant activity in inhibiting the survival of certain human tumor cells; also recorded: excellent activity in sensitizing to anticancer drugs
- response of all other tumors (human tumor cells): varying degrees of positive response
- anti-neoplastic activity (LDH release) (breast cancer cell lines): the cells that were responding to NCO-700 were estrogen receptor negative
- anti-neoplastic activity (LDH release) [1]: the cell lines that were testosterone receptor negative (and more malignant) responded very well
- anti-neoplastic activity (LDH release) [2]: all cells lines showed sensitivity to NCO-700
- effect on tumor size ([3]; 10 mg/kg): no effect
- effect on tumor size ([3]; 20 mg/kg): significant anti-neoplastic effect
- effect on tumor size ([3]; 40 mg/kg): highly significant
- anti-neoplastic activity (LDH release) (colon cancer cell lines): partly responsive
- anti-neoplastic activity (cell survival) (DU-145 (prostate)): significant anti-neoplastic activity
